Reference: publication PMC12717099, “Peptidoglycan recruitment by a penicillin binding protein” (Nature Communications, 2025)

Assays:
[1] = tested on: E. faecium D344SRF pCWR624Δpbp5 (empty plasmid); test: Disk diffusion assay, pCWR624Δpbp5; format: cell-based, Enterococcus faecium; conditions: strain pCWR624Δpbp5; 37 °C, 24 h; n=3
Experimental: (§1) The synthetic genes were purchased from GeneWiz (South Plainfield, NJ). The ribosome binding site sequence AGGAGG (Shine-Dalgarno), and a string of five A’s followed by the sequence […], that corresponds to the first 15 bp found in pbp5 from E. faecium C68 were added upstream of the START codon. The terminator sequence […] was added downstream of the STOP codon. BamHI restriction sites were added to the flanking 5′ and 3′ ends. The synthetic genes were inserted into the vector pCWR624Δpbp5. This vector was derived from pCWR624[10], in which the pbp5 gene from D366 was excised by digestion with BamHI followed by re-ligation of the vector, allowing subsequent insertion of modified synthetic pbp5s into the BamHI site downstream of ftsWEfm and psr from E. faecium C68[10]. The synthetic genes were inserted in a BamHI site located downstream of psr. The proper orientation was confirmed by PCR amplification using the forward primer OR_pbp5_FOR_1 (5′-[…]-3′) and the reverse primer OR_pbp5_REV_1 (5′-[…]-3′). Plasmids were sequence verified for the specific binding site mutations. The resulting constructions were electroporated into the natural pbp5(-) mutant E. faecium D344SRF with a selection on brain heart infusion agar (BHI) plates containing kanamycin (1500 µg/ml).
(§2) E. faecium strains were streaked fresh from −80 °C stored glycerol stocks onto brain heart infusion (BHI) agar plates and incubated for 18 h at 37 °C. Strains harboring the plasmid derivatives were grown under antibiotic pressure on agar plates containing kanamycin at 1500 µg/ml. A single colony was inoculated into BHI or BHI-kanamycin (1500 µg/ml) for overnight cultures (18 h).
(§3) Antibiotic disks used were manufactured by BD BBL^TM. Disk diffusion assays were performed according to the Clinical and Laboratory Standards Institute (CLSI) guidance. Overnight cultures were inoculated into 3 ml of BHI or BHI-kanamycin (1500 µg/ml) broth with a dilution of 1:100 and incubated until an OD600 of ~0.5 was reached. […] The plates were incubated at 37 °C and the zones of inhibition were measured after 24 h. […]

PBP5 = test: Bocillin FL fluorescence polarization binding competition assay; parameters: species or system Enterococcus faecium; conditions: antibiotic fixed 60 μM, PBP5 3.6 µM, Bocillin FL 30 nM, 37 °C, n = 3
Experimental: The assays were performed in low-volume 384-well black polystyrene assay plate (Corning, 4511), using assay buffer (100 mM Na-phosphate pH 7.0, 0.01% Triton X-100) to prevent the adsorption of Bocillin FL (Invitrogen, B13233) to the plate. Bocillin FL was dissolved in DMSO and stored as a 1 mM stock in the −20 °C freezer. Fresh working stock of Bocillin FL was made each day for the assays by diluting the stock with the assay buffer for a final concentration of 30 nM. The final concentration of PBP5 for the assays was 3.6 µM. The antibiotic, either penicillin G, ceftaroline or ceftriaxone, was added to PBP5 before the reactions were initiated by the addition of Bocillin FL. The plate was sealed with ThermalSeal RT silicone adhesive film (EXCEL Scientific, TSS-RTQ-100) to prevent evaporation during the measurements. Reaction without PBP5 (Bocillin FL only) was used as negative control. All reactions were carried out at 37 °C in a CLARIOStar plate reader (BMG Labtech) equipped with the 482 nm excitation filter, 530 nm emission filter and a dichroic filter LP504. The focal height was adjusted to 11.3 mm and the gain was set to 10 mP using the negative control. Measurements were made at 40 s intervals for up to 75 min with 100 flashes per measurement. Three replicates were made for each treatment in each run, and the experiment was repeated 3 times.

[2] = tested on: E. faecium D344SRF pCWR624Δpbp5 (empty plasmid); test: MIC by broth microdilution, pCWR624Δpbp5; format: cell-based, Enterococcus faecium; conditions: strain pCWR624Δpbp5; 37 °C, 20 h; n=3
Experimental: as §1, §2
MIC determination was performed using a standard broth microdilution technique in duplicate from independent cultures. Overnight cultures were inoculated into 3 ml of BHI or BHI-kanamycin (1500 µg/ml) broth in a dilution of 1:100 and incubated until an OD600 of ~0.5 was reached. Cultures were diluted 1:1000 and inoculated into the 96-well plates with the corresponding antibiotics to be tested. Plates were incubated at 37 °C for 20 h and read by eye. […]

[3] = tested on: E. faecium D344SRF pCWR624 (PBP5 plasmid); test: Disk diffusion assay, pCWR624; format: cell-based, Enterococcus faecium; conditions: strain pCWR624; 37 °C, 24 h; n=3
Experimental: as §1, §2, §3

[4] = tested on: E. faecium D344SRF pCWR624Δpbp5_pbp5_V2; test: Disk diffusion assay, pbp5_V2; format: cell-based, Enterococcus faecium; conditions: strain pbp5_V2 (N523A_Q627A); 37 °C, 24 h; n=3
Experimental: as §1, §2, §3

[5] = tested on: E. faecium D344SRF pCWR624Δpbp5_pbp5_V4; test: MIC by broth microdilution, pbp5_V4; format: cell-based, Enterococcus faecium; conditions: strain pbp5_V4 (D530A_L533A_W457A); 37 °C, 20 h; n=3
Experimental: as §1, with “The resulting constructions were electroporated into the natural pbp5(-) mutant E. faecium D344SRF with a selection on brain heart infusion agar (BHI) plates containing kanamycin (1500 µg/ml).” left out
MIC determination was performed using a standard broth microdilution technique in duplicate from independent cultures. […] Plates were incubated at 37 °C for 20 h and read by eye. […]

[6] = tested on: E. faecium D344SRF pCWR624Δpbp5_pbp5_V3; test: Disk diffusion assay, pbp5_V3; format: cell-based, Enterococcus faecium; conditions: strain pbp5_V3 (loop 625-631); 37 °C, 24 h; n=3
Experimental: as §1, §2, §3

## CO/N=C(\C(=O)N[C@@H]1C(=O)N2C(C(=O)O)=C(CSc3nc(=O)c(=O)[nH]n3C)CS[C@H]12)c1csc(N)n1 [Ceftriaxone, ceftriaxone]
[1]
  Zone Size (mm) [Range]: 24 [22-28] mm
PBP5
  binding/inhibition of PBP5, in words: does not bind/inhibit PBP5
PBP5; listed as ceftriaxone
  binding/inhibition of PBP5, in words: does not bind
[2]
  MIC (µg/ml) [Range]: 50 [25-100] µg/ml
[3]
  Zone Size (mm) [Range]: 0 [0] mm
[4]
  Zone Size (mm) [Range]: 24 [24-26] mm
[5]
  MIC (µg/ml) [Range]: 25 [25-50] µg/ml
[6]
  Zone Size (mm) [Range]: 28 [26-28] mm
